Experimental data: paper PMC12198407, “Preclinical and first-in-human of purinostat mesylate, a novel selective HDAC I/IIb inhibitor, in relapsed/refractory multiple myeloma and lymphoma” (Signal Transduction and Targeted Therapy, 2025)
Where two headings read alike, the source gives them in different places.

Key:
[1] = Plasma protein binding, equilibrium dialysis; assay type: in vitro ADME; settings: read-out: plasma protein binding rate (converted)
Method: The plasma protein binding rate of Purinostat Mesylate was measured using equilibrium dialysis in Sprague-Dawley rats, Beagle dogs, crab-eating monkeys, and human plasma.

CYP1A2 = target: T1, CYP1A2 (Homo sapiens, UniProt P05177); experiment: CYP inhibition, human liver microsomes; assay type: in vitro ADME
T1 construct: human liver microsomal cytochrome P450 isoenzymes; from tissue; host or cells: human liver microsomes

HDAC3 = HDAC3 (Homo sapiens, UniProt O15379); experiment: HDAC enzyme activity in vitro; assay type: biochemical
rabbit red blood cells = experiment: In vitro hemolytic test; settings: 0.204 mg/mL
Method: This experiment included a negative control group (0.9% sodium chloride injection), a positive control group (sterile water for injection), a blank formulation group of injectable Purinostat Mesylate with five dosage levels (0.1, 0.2, 0.3, 0.4, and 0.5 mL/test tube at a concentration of 3.06 mg/mL, which is the same as the concentration of the excipient in the injectable Purinostat Mesylate group), and five dosage levels of injectable Purinostat Mesylate (0.1, 0.2, 0.3, 0.4, and 0.5 mL/test tube at a concentration of 0.204 mg/mL, the maximum intended clinical concentration). A 2% red blood cell suspension was mixed with 0.9% sodium chloride injection, sterile water for injection, the blank formulation of injectable Purinostat Mesylate, and injectable Purinostat Mesylate in the specified proportions, and then placed in a constant temperature incubator at 37±0.5°C. […] Each group was measured in parallel three times.

[2] = Acute toxicity test, intravenous; assay type: in vivo, rats
Method: The experimental design included low, medium, and high doses of 50, 100, and 200 mg/kg administered intravenously. In the medium and high-dose groups, symptoms observed included ear reddening, reduced activity, prone posture, rapid breathing, and deep gasping; in the high-dose group, additional signs included deep gasping, arched back, and weight loss.

Daudi = experiment: Cell viability CCK8; assay type: cell-based; settings: Homo sapiens, 72 h, no unit in table, read-out: Antiproliferative activity IC50
Method: (§1) PM, panobinostat, Pom and DXM were dissolved in DMSO and stored at -20°C freezer. Cells were seeded at a density of 1.0-3.0 × 10^4 cells/well/100 μL in 96-well plates. After overnight incubation, cells were treated with the drug-containing culture medium for 24, 48, or 72 hours, and cell viability was measured using CCK8 (Oriscience, Chengdu, China) at the indicated time points with Biotek Cytation 3 at a wavelength of 450 nm. The IC50 values were calculated using GraphPad Prism 9.4.1, and Calcusyn 2.0 software was employed to calculate the CI values.

RPMI-8226 = experiment: Cell viability CCK8; assay type: cell-based; settings: Homo sapiens; RPMI-8226, 72 h; no unit in table; read-out: Antiproliferative activity IC50
Method: as §1

ARD = experiment: Cell viability CCK8; assay type: cell-based; settings: Homo sapiens, 72 h, no unit in table, read-out: Antiproliferative activity IC50
Method: as §1

SUDHL-4 = experiment: Cell viability CCK8; assay type: cell-based; settings: Homo sapiens, SU-DHL-4; SUDHL-4, 72 h; no unit in table; read-out: Antiproliferative activity IC50
Method: as §1

NKYS = experiment: Cell viability CCK8; assay type: cell-based; settings: Homo sapiens, 72 h, no unit in table, read-out: Antiproliferative activity IC50
Method: as §1

Raji = experiment: Cell viability CCK8; assay type: cell-based; settings: Homo sapiens, 72 h, no unit in table, read-out: Antiproliferative activity IC50
Method: as §1

AMO1 = experiment: Cell viability CCK8; assay type: cell-based; settings: Homo sapiens; AMO1, 72 h; no unit in table; read-out: Antiproliferative activity IC50
Method: as §1

RPMI-8226R = experiment: Cell viability CCK8; assay type: cell-based; settings: Homo sapiens, 72 h, no unit in table, read-out: Antiproliferative activity IC50
Method: as §1

KMS-11 = experiment: Cell viability CCK8; assay type: cell-based; settings: Homo sapiens; KMS-11, 72 h; no unit in table; read-out: Antiproliferative activity IC50
Method: as §1

MM1R = experiment: Cell viability CCK8; assay type: cell-based; settings: Homo sapiens, MM.1R, 72 h, no unit in table, read-out: Antiproliferative activity IC50
Method: as §1

MM1S = experiment: Cell viability CCK8; assay type: cell-based; settings: Homo sapiens, MM1.S, 72 h, no unit in table (b9: nM), read-out: Antiproliferative activity IC50
Method: as §1

Ramos = experiment: Cell viability CCK8; assay type: cell-based; settings: Homo sapiens, 72 h, no unit in table, read-out: Antiproliferative activity IC50
Method: as §1

MM1S xenograft = MM1S xenograft mouse model; assay type: in vivo, NOD-SCID mice; settings: for median survival time: satellite group, death = tumor 1500 mm³
bone destruction = experiment: Micro-CT of femur, 5TMM model; assay type: in vivo, C57BL/KawRij mice; settings: 10 mg/kg for 4 weeks
Method: The cMYC-KRAS12V-induced plasmacytoma mouse model in BALB/c (GemPharmatech Co., Ltd., Nanjing, China) was established as previously described.[33] On day 28 or 35 post bone marrow transplantation, recipients received various treatments. The 5TMM mouse model was established as previously described.[55] The 5TGM1-luc cells were intravenously injected into 6-week-old C57BL/KawRij mice (Harlan Co. Netherlands) with 2 × 10^6 cells per mouse. After three weeks, mice were treated with vehicle or PM 10 mg/kg. Serum Ca^2+ levels were monitored weekly for three weeks after the start of administration. Kaplan-Meier survival curves were generated for each treatment group. Additionally, the 5TMM mouse model studying PM’s effects on immune response and bone destruction involved randomizing mice into vehicle and PM (10 mg/kg) groups one week after inoculation. T cell subsets were analyzed by flow cytometry 24 h after a single dose and 1 month after vehicle or PM treatment. The mice were sacrificed after 1 month of treatment, and the bone destruction was detected by Micro-CT.

[3] = system: 8 MM and 8 lymphoma cell lines; experiment: Antiproliferation assay, cell line panel (CCK8); assay type: cell-based; settings: Homo sapiens; 72 h, all 16 cell lines
Method: as §1

[4] = Body weight of MM1S xenograft, DEL and r/r DLBCL PDX mice; assay type: in vivo; settings: treatment groups of the mouse models
Method: Mice received subcutaneous inoculation with 0.5 × 10^7 MM1S or RPMI-8226 cells, to establish xenograft models. […] When tumors reached 150–250 mm^3, mice were treated with various compounds. PM and panobinostat were administered intravenously three times a week at 5 mg/kg in combination therapy. […] Tumor volume (tumor volume (mm^3) = π/6 × length × width^2) and body weights were measured every two days.
Mice were weighed every two days. All data are represented as mean ± SEM.

Sequence of HDAC3 (O15379 whole entry): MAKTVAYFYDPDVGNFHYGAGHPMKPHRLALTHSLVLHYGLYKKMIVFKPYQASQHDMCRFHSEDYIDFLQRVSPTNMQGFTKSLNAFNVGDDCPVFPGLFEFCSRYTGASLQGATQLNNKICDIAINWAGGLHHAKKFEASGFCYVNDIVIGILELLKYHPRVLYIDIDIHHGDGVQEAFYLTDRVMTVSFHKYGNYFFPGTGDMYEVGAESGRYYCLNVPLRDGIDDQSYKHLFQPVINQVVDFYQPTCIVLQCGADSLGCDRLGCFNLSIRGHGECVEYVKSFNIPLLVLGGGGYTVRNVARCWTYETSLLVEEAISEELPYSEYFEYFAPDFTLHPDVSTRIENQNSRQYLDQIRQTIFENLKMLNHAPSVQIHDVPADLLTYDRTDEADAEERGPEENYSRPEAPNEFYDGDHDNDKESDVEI
Sequence of HDAC3 (Q9Y618 395-489 partner limits assumed): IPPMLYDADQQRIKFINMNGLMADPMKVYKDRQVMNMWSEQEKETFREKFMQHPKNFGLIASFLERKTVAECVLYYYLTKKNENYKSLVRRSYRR
T1 sequence (P05177 whole entry): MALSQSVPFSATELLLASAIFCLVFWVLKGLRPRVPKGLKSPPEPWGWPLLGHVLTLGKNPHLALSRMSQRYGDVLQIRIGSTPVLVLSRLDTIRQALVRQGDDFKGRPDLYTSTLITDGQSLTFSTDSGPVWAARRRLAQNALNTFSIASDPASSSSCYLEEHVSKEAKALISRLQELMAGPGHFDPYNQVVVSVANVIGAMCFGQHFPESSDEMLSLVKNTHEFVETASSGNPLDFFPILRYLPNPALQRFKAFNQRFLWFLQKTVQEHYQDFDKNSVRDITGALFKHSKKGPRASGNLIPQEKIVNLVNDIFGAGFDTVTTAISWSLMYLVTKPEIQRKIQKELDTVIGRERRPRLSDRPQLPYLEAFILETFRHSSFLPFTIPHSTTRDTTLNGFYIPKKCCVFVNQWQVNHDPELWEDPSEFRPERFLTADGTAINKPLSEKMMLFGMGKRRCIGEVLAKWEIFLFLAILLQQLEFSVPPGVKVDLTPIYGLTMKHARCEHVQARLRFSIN

CN(Cc1nc2c(N3CCOCC3)nc(-c3ccc(N)cc3)nc2n1C)c1ncc(C(=O)NO)cn1.CS(=O)(=O)O [PM, 2-(((2-(4-Aminophenyl)-9-methyl-6-(4-morpholinyl)-9H-purine-8-yl)methyl)methylamino)-N-hydroxy-5-pyrimidine-carboxamide Mesylate]
fraction unbound at 0.2 µM ([1]; Beagle, dog): 0.169 | fraction unbound at 2 µM ([1]; Beagle, dog): 0.164 | fraction unbound at 10 µM ([1]; Beagle, dog): 0.167 | fraction unbound at 0.2 µM ([1]; Sprague-Dawley, rat): 0.057 | fraction unbound at 2 µM ([1]; Sprague-Dawley, rat): 0.045 | fraction unbound at 10 µM ([1]; Sprague-Dawley, rat): 0.045 | fraction unbound at 0.2 µM ([1]; human): 0.097 | fraction unbound at 2 µM ([1]; human): 0.1 | fraction unbound at 10 µM ([1]; human): 0.096 | fraction unbound at 0.2 µM ([1]; monkey): 0.216 | fraction unbound at 2 µM ([1]; monkey): 0.205 | fraction unbound at 10 µM ([1]; monkey): 0.21 | IC50 (CYP1A2): > 10000 nM | IC50 (HDAC3): 1.7 nM | in vitro hemolytic test outcome (rabbit red blood cells): negative | MTD ([2]; both sexes, rat, in vivo, iv, single i.v., read-out: maximum tolerated dose (MTD)): 100 mg/kg | mortality ([2]; high dose 200 mg/kg, days 1 to 6): Six out of ten | IC50 (Daudi): 0.73 ± 0.51 nM | IC50 (RPMI-8226): 2.42 ± 0.4 nM | IC50 (ARD): 0.42 ± 0.04 nM | IC50 (SUDHL-4): 0.73 ± 0.05 nM | IC50 (NKYS): 0.77 ± 0.07 nM | IC50 (Raji): 1.96 ± 0.18 nM | IC50 (AMO1): 1.78 ± 0.14 nM | IC50 (RPMI-8226R): 2.02 ± 0.3 nM | IC50 (KMS-11): 1.99 ± 0.21 nM | IC50 (MM1R): 0.33 ± 0.01 nM | IC50 (MM1S): 0.47 ± 0.02 nM | IC50 (Ramos): 1.24 ± 0.47 nM | relative tumor growth rate T/C (MM1S xenograft; 2.5 mg/kg): 49.9% | tumor inhibition rate (MM1S xenograft; 2.5 mg/kg i.v. three times a week): 55.67% | relative tumor growth rate T/C (MM1S xenograft; 5 mg/kg): 32.0% | tumor inhibition rate (MM1S xenograft; 5 mg/kg i.v. three times a week): 64.39% | relative tumor growth rate T/C (MM1S xenograft; 10 mg/kg): 21.8% | tumor inhibition rate (MM1S xenograft; 10 mg/kg i.v. three times a week): 71.76% | relative tumor growth rate T/C (MM1S xenograft; 20 mg/kg): 18.3% | tumor inhibition rate (MM1S xenograft; 20 mg/kg i.v. three times a week): 76.44% | median survival time (MM1S xenograft; 5 mg/kg): 29.0 days | median survival time (MM1S xenograft; 10 mg/kg): 34.5 days | bone structure of femur (Micro-CT) (bone destruction): effectively prevented bone destruction and trabecular changes on the femoral surface | IC50 [3]: < 5 nM | body weight / side effects [4]: no weight loss or other evident side effects
